Data published in patent US9993515B2 (DSM IP ASSETS B.V., priority 2006, dated 2018).
Read-outs that look alike come from different tables or passages of the source. Residues, ends and D or L forms follow the SMILES beside them.

Legend:
healthy volunteers = assay: Profile of Mood States (POMS) after consumption of tryptophan sources (Example 6); assay type: in vivo, human; settings: for mood changes after the intake (POMS total mood scores): over time after intake
Description: The POMS comprises five different subscales for mood; ranging from Anger, Depression, Fatigue and Tension that refer to a negative mood state, to Vigor concerning a positive mood.

[1] = both, human, in vivo
Description: The amino acid profiles in plasma were analyzed as described in Example 6 by HPLC according to van Eijk et al (J. Chromatogr. 1993: 620: 143-148).
The aim of the present study was to investigate in healthy volunteers plasma Trp/LNAA profiles and mood after the consumption of different tryptophan containing preparations.
Eighteen healthy students (9 males and 9 females: age between 18-30 years) participated in the study. Exclusion criteria for participation were chronic and current illness, history of psychiatric or medical illness, use of medication or drugs, alcohol consumption (>2 units/day), metabolic-, hormonal- or intestinal diseases and irregular diets or deviant eating habits (assessed by health and life-style questionnaires). Subjects participating in the experiment were in the normal range for the Body-Mass Index (BMI in kg/m^2 between 20-25) and female subjects are matched for contraception. Women participated during their mid-late follicular phase (day 4-10), while women using contraception participated when they actually used the contraception pill. […] All subjects participating in the experiment signed an Informed Consent Form. This study was conducted according to the EC principles of Good Clinical Practice (GCP) adopted by the 52nd WMA General Assembly, Edinburgh, Scotland, October 2000.
Subjects were instructed to fast overnight; only water or tea without sugar was permitted. During five experimental morning sessions, subjects visited the laboratory to monitor plasma Trp/LNAA concentrations and mood following the intake of a drink containing different Trp or LNAA concentrations. The order of presentation of the various drinks was counterbalanced and the four experimental days were separated by a one-week period. On each experimental morning, a 312 ml drink was provided containing different tryptophan (Trp) or LNAA concentrations (Table 1). All drinks contained 0.10 g sweetener (acesulfame) and were filled up with plain water in order to reach 312 mL. A research assistant blind to the dietary conditions conducted the administration of the different drinks.
Blood samples were collected in duplicate before and 15, 30, 60, 90, 120, 180 and 210 minutes after ingestion in 5 ml vacutainer tubes containing sodium heparine and were then centrifuged at 5000 rpm for 5 min at 4° C. The resulting supernatants were mixed with sulfasalicyl acid (4 mg/100 microliter) and directly stored at −80° C. until analysis. Plasma amino acid analysis was conducted with HPLC, making use of a 2-3 μm Bischof Spherisorb ODS II column as described by van Eijk et al (J. Chromatogr. 1993: 620: 143-148). The plasma Trp/LNAA ratios were calculated by dividing the plasma molar tryptophan concentration by the sum of the plasma molar concentrations of the large neutral amino acids valine, isoleucine, leucine, tyrosine and phenylalanine. Statistical analysis took place by means of repeated measures multivariate and univariate analyses of variance (MANOVA and ANOVA) using the General Linear Model (GLM: SPSS 12.0 for Windows). All statistics were evaluated at a significance level of P=0.05.

N[C@@H](CO)C(=O)N[C@@H](Cc1c[nH]c2ccccc12)C(=O)O [SYN, Ser-Trp] (H-Ser-Trp-OH)
mood changes after the intake (POMS total mood scores) (healthy volunteers): not significant

N[C@@H](Cc1c[nH]c2ccccc12)C(=O)O [TRP, L-tryptophan]
plasma Trp/LNAA ratio ([1]; 0 min): 0.11 | plasma Trp/LNAA ratio ([1]; 30 min): 0.12 | plasma Trp/LNAA ratio ([1]; 60 min): 0.29 | plasma Trp/LNAA ratio ([1]; 90 min): 0.31 | plasma Trp/LNAA ratio ([1]; 120 min): 0.32 | plasma Trp/LNAA ratio ([1]; 180 min): 0.24 | plasma Trp/LNAA ratio ([1]; 210 min): 0.20 | mood (POMS total mood scores) (healthy volunteers; 60 min after the intake): improvements of mood

ALAC: intact alpha-lactalbumin obtained as Biopure (>90% alpha-lactalbumin) from Davisco Foods International
mood changes after the intake (POMS total mood scores) (healthy volunteers): no mood changes
